Patent US11358933B2, “Compounds and methods for inhibiting CYP26 enzymes” (Queen's University at Kingston, priority 2017, dated 2022)

Columns and labels:
MC3T3 cells = experiment: RA metabolism by MC3T3 pre-osteoblasts; type: cell-based, mouse
Protocol: (§1) These experiments are to assess the ability of primary cells, or cell lines to metabolize RA, and to determine the effect of inhibition of CYP26A1 or CYP26B1 on this ability. For these experiments, cells are plated into 48-well plates and treated with a radiolabeled (^3H) RA. The extent of conversion of this labeled RA to water soluble metabolites is determined as above for in the cell-based inhibitor assay. Primary human bone marrow stromal cells (available from Lonza) were cultured in MyeloCult (available from Stem Cell Technologies, Vancouver, Canada). Mouse OP9 bone marrow stromal cells and MC3T3 pre-osteoblasts were cultured as above. Cells are plated in the appropriate culture medium and allowed to form a monolayer. Cells are then pre-treated with either DMSO (vehicle control) or RA (1 μM) for 24 hours to induce CYP26 expression. Vehicle, and RA induced cells are then exposed to ^3H-RA in the presence or absence of test CYP26 inhibitor to examine the effects on RA metabolism. Cells are incubated for 3 hours with labeled RA, and metabolites extracted and analyzed as above.

[1] = test system: bone marrow mononuclear cells of mice; experiment: Induction of RA activity in mouse bone marrow (QPCR of RA target genes); type: in vivo; conditions: intravenous 40 μg/kg once per day for two days, versus vehicle
Protocol: Human and mouse bone marrow stromal cells express CYP26 enzymes and Cyp26B1 is highly inducible by RA in these cells. This experiment tests whether exposure of bone marrow to a CYP26 inhibitor is sufficient to raise RA levels in the bone marrow and induce RA-target genes. Mice (8-12 week old) were given intravenous injections (tall vein) on two consecutive days (once per day) of CYP26 inhibitor compound dissolved in 0.9% sodium chloride/0.1% DMSO. Animals were given a dose of 40 μg/kg of inhibitor, or an equal volume of vehicle alone. The morning after the second injection, animals were sacrificed, and bone marrow mononuclear cells were harvested from femurs using Lympholyte-mammal reagent (available from Cedarlane, Burlington, Canada). RNA was then extracted from isolated cells, and RA target gene expression assessed by qPCR.

THP-1 cells = experiment: Leukemia cell colony formation, THP-1 cells; type: cell-based, human; conditions: RA plus compound, culture with stromal cells
Protocol: This experiment is used to test the long-term proliferative ability of hematopoietic stem and progenitor cells as well as leukemic stem cells. Colony forming ability in long term cultures is indicative of stem/progenitor cell activity. […] For these experiments, bone marrow stromal and leukemic cell co-cultures are prepared as described above and treated with RA and/or CYP26 inhibitor compound for 72 hours. After the treatment period, leukemic cells are collected and re-plated in semi-solid methylcellulose medium to assess colony forming ability. 500 leukemic cells are plated per dish in 35 mm plates in 1.1 ml of MethoCult (available from STEMCELL Technologies, Vancouver, Canada). Triplicate plates are prepared per treatment, and cultures are grown for 14-16 days in a CO2 incubator. After the culture period colonies are counted under a dissecting microscope.

CYP26A1 = CYP26A1 (Homo sapiens (Human), UniProt O43174); experiment: Cell-based inhibitor assay ([3H]-RA metabolism), CYP26A1 stably transfected HeLa cells
Protocol: CYP26A1 or CYP26B1 stably transfected HeLa cells were maintained in Minimum Essential Medium (MEM) containing 10% fetal bovine serum (FBS) and 100 μg/mL hygromycin. Exponentially growing cells were harvested by incubation in trypsin. Cells were then collected and re-plated in 48-well culture plates at 5×10^5 cells in 0.2 mL of culture medium containing 0.05 μCi [^3H]-RA in the presence or absence of increasing concentrations of a test compound. The test compounds were diluted in dimethyl sulfoxide (DMSO) and then added in duplicate to wells at 0.01, 0.1, 1, 10 and 100 μM final concentration. As a positive control for inhibition of RA metabolism, cells were also incubated with ketoconazole at the same concentrations as above. Cells were incubated for 3 hours at 37° C. Retinoids were then extracted using the procedure of Bligh, et al., (1959), Canadian Journal of Biochemistry 37, 911-917, which was modified by using dichloromethane instead of chloroform. Each sample's water soluble radioactivity level was quantified using a β-scintillation counter (using Ecolume scintillation fluid, available from MP Biomedicals of Solon, Ohio, USA). IC50 values represented the concentration of inhibitor required to inhibit all trans-RA metabolism by 50%, and were derived from log transformed data.

MC3T3-E1 cells = experiment: Osteoblast cell differentiation, MC3T3-E1 cells; type: cell-based, mouse
Protocol: These experiments are used to test the ability of CYP26 inhibitors to reduce or block osteoblast differentiation in vitro using a cell culture model. MC3T3-E1 mouse calvarias pre-osteoblasts (available from the American Type Culture Collection) were cultured in MEM-α without ascorbic acid. To induce osteoblast differentiation and matrix mineralization, cells are switched to medium containing ascorbic acid (50 μg/ml) and phosphate (10 mM β-glycerophosphate) and cultured for up to 21 days while changing media every 2-3 days. Cells are also treated with varying concentrations of RA or CYP26 inhibitor compound to assess effects on osteoblast differentiation. At the end of the treatment period, cells in 24-well plates and fixed in 70% ethanol, and stained with Alizarin red (40 mM pH 4.2) to visualize calcified extracellular matrix, indicative of osteoblast differentiation. Stained wells were photographed under a Leica MZ95 dissecting microscope. Other cells grown in 6 well plates are used for RNA extraction, and qPCR analysis of bone differentiation markers and RA target genes.

[2] = test system: primary human bone marrow stromal cells; experiment: RA metabolism by primary human bone marrow stromal cells; type: cell-based; conditions: pre-treated with DMSO or 1 μM RA 24 hours; 1 μM compound (FIG. 5)
Protocol: as §1

Chain of CYP26A1 (O43174 whole entry): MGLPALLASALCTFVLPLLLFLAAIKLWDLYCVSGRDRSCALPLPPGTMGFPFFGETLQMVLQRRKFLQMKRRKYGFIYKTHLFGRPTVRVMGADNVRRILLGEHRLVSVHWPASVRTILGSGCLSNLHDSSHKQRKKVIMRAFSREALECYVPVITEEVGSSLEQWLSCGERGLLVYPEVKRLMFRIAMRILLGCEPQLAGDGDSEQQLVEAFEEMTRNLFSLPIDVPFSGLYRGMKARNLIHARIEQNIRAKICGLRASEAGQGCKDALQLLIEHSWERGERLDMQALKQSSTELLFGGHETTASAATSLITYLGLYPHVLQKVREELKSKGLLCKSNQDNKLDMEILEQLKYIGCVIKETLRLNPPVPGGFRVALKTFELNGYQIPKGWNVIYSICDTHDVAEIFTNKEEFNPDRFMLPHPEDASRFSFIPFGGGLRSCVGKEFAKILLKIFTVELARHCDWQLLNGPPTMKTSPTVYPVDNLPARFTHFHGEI

With `CC(C)(C)c1cccc(-c2cc3cc(/C=C/C(=O)O)ccc3[nH]2)c1` [Compound 026] the “RA metabolism, basal and RA-induced” value (MC3T3 cells) was “block basal as well as RA-induced RA metabolism in these cells in a dose-dependent manner”, the “Expression of Cyp26a1 and Crabp2 in bone marrow mononuclear cells” value [1] was “both induced” and the Colony forming units (THP-1 cells) was “rescued the effects of RA and decreased colony forming units”. The “CYP26A1 inhibition compared with ketoconazole” value (CYP26A1; FIG. 1) was “comparable to ketoconazole”, the IC50 (CYP26A1; HeLa cell-based assay, 3 hours) was 7 µM and the “CYP26A1 Rel. to keto” value (CYP26A1; IC50 relative to ketoconazole) was 4.4. The “Bglap and Ibsp expression” value (MC3T3-E1 cells; 10 nmol RA plus 1 μM compound) was “suppressing Bglap and Ibsp expression”, the “Bglap and Ibsp expression” value (MC3T3-E1 cells; 10 μM compound, osteogenic medium) was “blocked their expression” and the Cyp26b1 gene expression (MC3T3-E1 cells; compared with controls) was “dramatic upregulation of Cyp26b1”. For the same compound, the “Calcified matrix (alizarin red staining)” value (MC3T3-E1 cells; osteogenic medium, 21 days, increasing concentrations) was “reduced by the presence of compound 026 in a dose-dependent manner” and the “RA metabolism, basal and RA-induced” value [2] was “efficiently blocked both basal and RA-induced RA metabolism”.
